Experimental data reported in PMC3689638, “Cell cycle-dependent activity of the novel dual PI3K-MTORC1/2 inhibitor NVP-BGT226 in acute leukemia” (Molecular Cancer, 2013).

System: AKT phosphorylation (Ser473, Thr308)
Experiment: western immunoblot of AKT signaling, MOLM14 or K562 cells
Type: cell-based, human
Description: For comparative analysis, additional lysates from cells treated with an ABL1 or FLT3 tyrosine kinase inhibitor (imatinib for K562 BCR-ABL1 cells, sunitinib for MOLM14 FLT3 ITD cells) as well as rapamycin were used.
Rabbit anti-panAKT, panFLT3, panABL1 or anti-cleaved caspase 3 antibodies were used at a 1:500 to 1:1000 dilution. Rabbit anti-phospho-AKT antibodies detecting phosphorylated isoforms of T308-AKT, S473-AKT, S807/811-RB, S575-ULK1, T389-p70S6K, Y694-STAT5, FLT3, ABL1 or T202/Y204-ERK1/2 were used at a 1:250 to 1:1000 dilution. An anti-actin mouse monoclonal antibody was used as a loading control. All antibodies, if not otherwise indicated, were purchased from Cell Signaling Technology.
Cell pellets were lysed with 100 to 150 μl of protein lysis buffer (50 mmol/L Tris, 150 mmol/L NaCl, 1% NP40, 0.25% deoxycholate with added inhibitors aprotinin, AEBSF, leupeptin, pepstatin, sodium orthovanadate, and sodium pyruvate, respectively phosphatase inhibitor cocktails „2“ and „1“ or „3“ (Sigma, St. Louis, MO). Protein from cell lysates (75 to 200 μg protein) was used for whole cell protein analysis after denaturing by Western immunoblot assays using a BioRad Criterion system. Nonspecific binding was blocked by incubating the blots in nonfat dry milk or BSA. Primary antibodies were incubated for one hour or over night, followed by several washes of Tris-buffered saline (TBS) containing 0.005% Tween 20. The appropriate secondary antibody was applied for 30‘, followed by several washes. Antibody-reactive proteins were detected using a LI-COR Odyssey® fluorescence optical system.

`CO[C@H]1C[C@@H]2CC[C@@H](C)[C@@](O)(O2)C(=O)C(=O)N2CCCC[C@H]2C(=O)O[C@H]([C@H](C)C[C@@H]2CC[C@@H](O)[C@H](OC)C2)CC(=O)[C@H](C)/C=C(\C)[C@@H](O)[C@@H](OC)C(=O)[C@H](C)C[C@H](C)/C=C/C=C/C=C/1C` [rapamycin] was tested, and the “phosphorylation of AKT (immunoblot)” value was “did not suppress AKT phosphorylation”.
